ChEMBL document CHEMBL1201862, “PubChem BioAssay data set” (2004)
One block for each molecule: values may come before it. Active and inactive are the calls of the source.

What was measured:
[1] = target: Cytochrome P450 2C19 (Homo sapiens, UniProt P33261); assay: Cytochrome panel assay with activity outcomes. Panel member name: p450-cyp2c19 Compounds with AC50 equal or less than 10 uM are considered active; type: functional
[2] = target: T1, Cytochrome P450 1A2 (Homo sapiens, UniProt P05177)
T1 sequence (P05177 whole entry): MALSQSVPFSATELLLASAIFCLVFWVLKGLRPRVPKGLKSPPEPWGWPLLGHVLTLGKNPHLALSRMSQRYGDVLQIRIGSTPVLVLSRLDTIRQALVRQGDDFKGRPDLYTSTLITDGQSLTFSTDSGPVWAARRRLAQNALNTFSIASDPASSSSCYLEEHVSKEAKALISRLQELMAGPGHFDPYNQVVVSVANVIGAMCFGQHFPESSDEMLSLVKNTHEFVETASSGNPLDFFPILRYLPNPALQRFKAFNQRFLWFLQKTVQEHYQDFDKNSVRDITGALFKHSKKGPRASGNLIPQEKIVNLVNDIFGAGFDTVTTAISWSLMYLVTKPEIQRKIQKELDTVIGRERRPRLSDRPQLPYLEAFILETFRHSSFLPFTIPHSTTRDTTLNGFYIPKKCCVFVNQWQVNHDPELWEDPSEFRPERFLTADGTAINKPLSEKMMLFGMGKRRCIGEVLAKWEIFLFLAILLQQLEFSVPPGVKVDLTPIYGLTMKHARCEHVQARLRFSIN

[3] = target: Cytochrome P450 3A4 (Homo sapiens, UniProt P08684);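 also: CYP3A4 tested as one member of a cytochrome P450 panel screen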
[4] = target: Cytochrome P450 2C9 (Homo sapiens, UniProt P11712)
[5] = test system: Escherichia coli; assay: microbe, parasite or virus in culture
[6] = test system: Escherichia coli; assay: microbe, parasite or virus in culture; remark: listed apart in the source
[7] = NIH-3T3 fibroblast cytotoxicity, dose response, cytotoxicity control, cell-based, fluorescence, Alamar Blue, secondary assay (AID 2327); type: functional;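 also: NIH-3T3 mouse fibroblasts cultured with fluconazole at 8 µg/mL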
[8] = insulin promoter down-regulators in MIN6 cells, imaging, high-content screening, mouse beta cells (AID 1628); type: functional
[9] = cytotoxicity in MIN6 insulinoma cells, dose response, cytotoxicity control, cell-based, mouse insulinoma (AID 2122); type: functional;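 also: confirmatory high-throughput counterscreen run to flag cytotoxic compounds; mouse MIN-6 beta cells carrying an insulin promoter eGFP reporter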
[10] = target: Paired box protein Pax-8 (Homo sapiens, UniProt Q06710); assay: inhibitors of PAX8-driven TPO luciferase reporter, dose response, RMG-I cells, cherry-pick (AID 687027); type: functional, cell-based;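 also: luciferase reporter driven by Pax8 target thyroperoxidase promoter measured by SteadyGlo luminescence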
[11] = A2780 ovarian cancer cell cytotoxicity, dose response, cytotoxicity control, plate reader, dry powder samples (AID 743046); type: functional, cell-based
[12] = cytotoxicity in OVCAR8 ovarian cancer cells, dose response, PAX8 project, cell-based, plate reader, dry powder samples (AID 743197); type: functional; details: OVCAR-8
[13] = target: Induced myeloid leukemia cell differentiation protein Mcl-1 (Homo sapiens, UniProt Q07820); type: functional
[14] = target: T2, Heat shock factor protein 1 (Mus musculus, UniProt P38532); assay: HSF1 potentiators in luciferase reporter cells, confirmation, cell-based, NIH3T3, luminescence, dose retest (AID 435004); type: functional;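 also: stress induced by proteasome inhibitor MG132 added 30 min after compound; luciferase reporter driven by HSF1 response element in NIH3T3 cells; actives raise luminescence as potentiators of the MG132 stress response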
T2 sequence (P38532 whole entry): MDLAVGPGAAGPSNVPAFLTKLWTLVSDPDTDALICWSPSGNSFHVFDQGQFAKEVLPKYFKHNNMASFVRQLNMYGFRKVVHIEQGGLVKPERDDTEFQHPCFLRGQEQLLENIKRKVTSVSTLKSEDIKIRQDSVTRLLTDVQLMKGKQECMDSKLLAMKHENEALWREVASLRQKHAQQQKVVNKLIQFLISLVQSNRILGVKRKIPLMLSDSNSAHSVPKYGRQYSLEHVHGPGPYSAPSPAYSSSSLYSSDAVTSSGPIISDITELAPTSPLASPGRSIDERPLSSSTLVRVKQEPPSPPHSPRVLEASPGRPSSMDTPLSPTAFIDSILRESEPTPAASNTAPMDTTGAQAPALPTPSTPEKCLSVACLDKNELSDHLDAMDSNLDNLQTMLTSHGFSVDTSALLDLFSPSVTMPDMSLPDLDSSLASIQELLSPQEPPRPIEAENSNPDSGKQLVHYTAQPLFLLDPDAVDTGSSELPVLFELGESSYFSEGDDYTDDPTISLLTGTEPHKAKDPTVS

Sequence of Cytochrome P450 2C9 (P11712 whole entry): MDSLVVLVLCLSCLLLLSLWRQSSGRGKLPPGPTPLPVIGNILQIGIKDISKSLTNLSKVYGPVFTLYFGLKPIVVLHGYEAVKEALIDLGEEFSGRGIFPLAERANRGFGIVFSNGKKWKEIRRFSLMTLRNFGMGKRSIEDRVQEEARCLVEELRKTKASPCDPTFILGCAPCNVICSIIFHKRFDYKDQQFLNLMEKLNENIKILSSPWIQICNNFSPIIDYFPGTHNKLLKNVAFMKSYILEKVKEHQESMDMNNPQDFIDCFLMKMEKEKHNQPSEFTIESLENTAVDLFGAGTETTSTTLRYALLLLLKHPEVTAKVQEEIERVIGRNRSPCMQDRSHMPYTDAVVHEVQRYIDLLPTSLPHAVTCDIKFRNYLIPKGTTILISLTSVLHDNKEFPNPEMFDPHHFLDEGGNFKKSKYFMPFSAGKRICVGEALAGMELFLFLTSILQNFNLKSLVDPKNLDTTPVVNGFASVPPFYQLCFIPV
Sequence of Cytochrome P450 2C19 (P33261 whole entry): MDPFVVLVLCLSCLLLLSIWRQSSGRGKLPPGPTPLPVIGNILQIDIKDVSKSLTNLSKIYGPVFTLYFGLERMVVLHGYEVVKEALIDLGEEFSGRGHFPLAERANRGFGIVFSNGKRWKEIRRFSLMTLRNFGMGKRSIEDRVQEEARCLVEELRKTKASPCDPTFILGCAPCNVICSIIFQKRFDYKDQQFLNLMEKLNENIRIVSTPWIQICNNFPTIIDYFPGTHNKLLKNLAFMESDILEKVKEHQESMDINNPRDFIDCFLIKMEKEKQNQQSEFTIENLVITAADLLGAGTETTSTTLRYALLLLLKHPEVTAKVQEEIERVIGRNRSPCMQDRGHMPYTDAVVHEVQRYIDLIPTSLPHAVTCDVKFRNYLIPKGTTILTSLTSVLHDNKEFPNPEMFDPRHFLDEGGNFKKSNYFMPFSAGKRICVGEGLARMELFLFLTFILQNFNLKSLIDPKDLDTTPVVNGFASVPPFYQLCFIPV
Sequence of Cytochrome P450 3A4 (P08684 whole entry): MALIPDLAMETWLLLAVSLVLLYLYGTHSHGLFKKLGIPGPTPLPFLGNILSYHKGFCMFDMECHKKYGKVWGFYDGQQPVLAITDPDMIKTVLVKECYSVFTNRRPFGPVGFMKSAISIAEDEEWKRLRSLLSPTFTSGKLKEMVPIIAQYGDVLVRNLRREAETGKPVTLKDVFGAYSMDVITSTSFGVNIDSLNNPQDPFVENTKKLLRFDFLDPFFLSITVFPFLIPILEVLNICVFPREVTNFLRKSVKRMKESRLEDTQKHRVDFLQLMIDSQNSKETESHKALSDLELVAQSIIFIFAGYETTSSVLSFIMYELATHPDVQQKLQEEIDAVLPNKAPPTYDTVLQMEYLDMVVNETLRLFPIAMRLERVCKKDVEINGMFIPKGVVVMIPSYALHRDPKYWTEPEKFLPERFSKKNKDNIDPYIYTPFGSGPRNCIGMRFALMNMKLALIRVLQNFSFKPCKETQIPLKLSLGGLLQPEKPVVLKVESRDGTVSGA
Sequence of Paired box protein Pax-8 (Q06710 whole entry): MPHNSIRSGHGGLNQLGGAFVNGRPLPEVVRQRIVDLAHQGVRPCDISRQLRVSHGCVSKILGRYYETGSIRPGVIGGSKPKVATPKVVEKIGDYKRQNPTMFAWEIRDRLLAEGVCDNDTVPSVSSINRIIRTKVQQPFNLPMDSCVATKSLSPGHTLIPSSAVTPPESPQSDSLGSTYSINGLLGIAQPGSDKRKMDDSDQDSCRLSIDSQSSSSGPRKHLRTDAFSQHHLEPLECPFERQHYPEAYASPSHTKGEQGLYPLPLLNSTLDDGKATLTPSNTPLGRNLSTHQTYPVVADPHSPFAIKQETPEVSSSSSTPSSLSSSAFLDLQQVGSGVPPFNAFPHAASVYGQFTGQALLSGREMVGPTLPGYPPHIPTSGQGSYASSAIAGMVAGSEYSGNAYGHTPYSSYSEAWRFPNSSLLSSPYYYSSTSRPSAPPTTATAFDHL
Sequence of Induced myeloid leukemia cell differentiation protein Mcl-1 (Q07820 whole entry): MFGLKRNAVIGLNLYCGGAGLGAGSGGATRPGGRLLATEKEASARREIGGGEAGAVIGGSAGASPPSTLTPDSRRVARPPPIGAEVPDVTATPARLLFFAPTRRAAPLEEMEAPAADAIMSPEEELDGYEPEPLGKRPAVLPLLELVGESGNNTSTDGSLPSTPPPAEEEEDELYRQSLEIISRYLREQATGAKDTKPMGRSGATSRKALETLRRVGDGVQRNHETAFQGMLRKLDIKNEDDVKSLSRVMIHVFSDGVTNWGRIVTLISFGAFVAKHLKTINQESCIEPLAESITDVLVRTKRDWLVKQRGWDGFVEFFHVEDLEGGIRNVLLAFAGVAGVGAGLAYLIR

SMILES: Cc1cc(C)n(-c2ccc(NC(=O)C3CCN(Cc4ccccn4)CC3)cc2)n1
AC50 [5]: 39.4 µM (active) | AC50 [6]: 51.6 µM (active)

SMILES: C[n+]1c(-c2ccccc2)cc(CCCCc2cc(-c3ccccc3)[n+](C)c(-c3ccccc3)c2)cc1-c1ccccc1.[O-][Cl+3]([O-])([O-])[O-].[O-][Cl+3]([O-])([O-])[O-]
EC50 [7]: > 160 µM (inactive) | IC50 [8]: 2.72 µM (active) | IC50 [9]: 4.7 µM (active)

SMILES: C[C@@H]1CN([C@H](C)CO)C(=O)c2cc(NC(=O)Nc3ccc(F)cc3)ccc2O[C@@H](C)CCCCO[C@H]1CN(C)S(=O)(=O)c1ccc(Cl)cc1
AC50 [10]: 6.11 µM (active) | AC50 [11]: 5.81 µM (active) | AC50 [12]: > 70 µM (inactive)

SMILES: Cc1ccc([N+](=O)[O-])cc1/N=N/c1c(-c2ccc([N+](=O)[O-])cc2)[nH]n(C(N)=S)c1=O
IC50 [13]: 1.18 µM (active) | EC50 [14]: > 260 µM (inactive)

SMILES: CO[C@H]1/C=C/O[C@@]2(C)Oc3c(C)c(O)c4c(O)c(c(/C=N/N5CCN(C)CC5)c(O)c4c3C2=O)NC(=O)/C(C)=C\C=C\[C@H](C)[C@H](O)[C@@H](C)[C@@H](O)[C@@H](C)[C@H](OC(C)=O)[C@@H]1C [RIFAMPIN]
AC50 [6]: 32.3 µM (active)

More lines, now with the values ahead:

AC50 ([1]; read-out: AC50): 39.8 µM (inconclusive) | AC50 [2]: 25.1 µM (inconclusive) | AC50 [3]: inconclusive | AC50 [4]: inconclusive
SMILES: Cn1cccc1C(=O)N1CCC2(CC1)CN(c1cccc(-c3ccccc3)c1)C2

AC50 [1]: inconclusive | AC50 [4]: inconclusive
SMILES: O=C(OCCCN1CCCCC1)c1ccc(O)cc1

AC50 [1]: inconclusive | AC50 [4]: inconclusive
SMILES: O=C(N/N=C/c1cccc(C(F)(F)F)c1)C1CCN(c2ncc(C(F)(F)F)cc2Cl)CC1
